PMC5218480 (PLoS ONE, 2017)

Test system: MV-4-11 cells
Experiment: Gene expression microarray analysis (Affymetrix PrimeView) and GSEA
Assay type: cell-based, human
Design: RFU PODN (11730768_x_at) / Fold change /veh PODN (11730768_x_at) / RFU LINC00158 (11744669_a_at) / Fold change /veh LINC00158 (11744669_a_at) / RFU DUSP10 (11751237_a_at) / Fold change /veh DUSP10 (11751237_a_at) / RFU ID3 (11757404_x_at) / Fold change /veh ID3 (11757404_x_at) / RFU PLEKHG5 (11737974_s_at) / Fold change /veh PLEKHG5 (11737974_s_at) / RFU LRRC4B (11730491_at) / Fold change /veh LRRC4B (11730491_at) / RFU GIMAP4 (11747438_a_at) / Fold change /veh GIMAP4 (11747438_a_at) / RFU KRT8 (11758183_x_at) / Fold change /veh KRT8 (11758183_x_at) / RFU CNN1 (11734310_a_at) / Fold change /veh CNN1 (11734310_a_at) / RFU VPS37D (11726825_at) / Fold change /veh VPS37D (11726825_at) / RFU C10orf10 (11716522_x_at) / Fold change /veh C10orf10 (11716522_x_at) / RFU KIR2DL2 /// KIR2DL4 /// KIR2DL5A /// KIR2DL5B /// KIR2DS1 /// KIR2DS2 /// KIR2DS3 /// KIR2DS4 /// KIR3DL3 /// KIR3DL3 /// KIR3DS1 (11738374_at) / Fold change /veh KIR2DL2 /// KIR2DL4 /// KIR2DL5A /// KIR2DL5B /// KIR2DS1 /// KIR2DS2 /// KIR2DS3 /// KIR2DS4 /// KIR3DL3 /// KIR3DL3 /// KIR3DS1 (11738374_at) / RFU C1QL1 (11718748_at) / Fold change /veh C1QL1 (11718748_at) / RFU TMPRSS4 (11747572_a_at) / Fold change /veh TMPRSS4 (11747572_a_at) / RFU HAMP (11756126_x_at) / Fold change /veh HAMP (11756126_x_at) / RFU RNFT2 (11725882_a_at) / Fold change /veh RNFT2 (11725882_a_at) / RFU NR4A2 (11747474_a_at) / Fold change /veh NR4A2 (11747474_a_at) / RFU ABCC12 (11746883_a_at) / Fold change /veh ABCC12 (11746883_a_at) / RFU TMEM136 (11760407_x_at) / Fold change /veh TMEM136 (11760407_x_at) / RFU CLDN22 /// WWC2 (11732394_at) / Fold change /veh CLDN22 /// WWC2 (11732394_at) / RFU HLA-DPB1 (11760878_x_at) / Fold change /veh HLA-DPB1 (11760878_x_at) / RFU SPINT1 (11716480_a_at) / Fold change /veh SPINT1 (11716480_a_at) / RFU GAP43 (11754022_s_at) / Fold change /veh GAP43 (11754022_s_at) / RFU A4GNT (11735810_at) / Fold change /veh A4GNT (11735810_at) / RFU PRB3 (11715151_x_at) / Fold change /veh PRB3 (11715151_x_at) / RFU TUBB4B (11761932_at) / Fold change /veh TUBB4B (11761932_at) / RFU CAPN14 (11732068_a_at) / Fold change /veh CAPN14 (11732068_a_at) / RFU TMCC2 (11721928_a_at) / Fold change /veh TMCC2 (11721928_a_at) / RFU IRGQ (11745062_a_at) / Fold change /veh IRGQ (11745062_a_at) / RFU FAM174B (11720279_a_at) / Fold change /veh FAM174B (11720279_a_at) / RFU TMPRSS4 (11748680_a_at) / Fold change /veh TMPRSS4 (11748680_a_at) / RFU FAM212B (11763350_a_at) / Fold change /veh FAM212B (11763350_a_at) / RFU PLEKHG5 (11743358_a_at) / Fold change /veh PLEKHG5 (11743358_a_at) / RFU ZSCAN30 (11745921_a_at) / Fold change /veh ZSCAN30 (11745921_a_at) / RFU CMKLR1 (11741424_a_at) / Fold change /veh CMKLR1 (11741424_a_at) / RFU LOC101060620 /// MAPK8IP1 (11723275_at) / Fold change /veh LOC101060620 /// MAPK8IP1 (11723275_at) / RFU SPTSSB (11747773_x_at) / Fold change /veh SPTSSB (11747773_x_at) / RFU PRSS12 (11739890_at) / Fold change /veh PRSS12 (11739890_at) / RFU BIN1 (11741810_x_at) / Fold change /veh BIN1 (11741810_x_at) / RFU WNT11 (11732464_a_at) / Fold change /veh WNT11 (11732464_a_at) / RFU C10orf10 (11716521_a_at) / Fold change /veh C10orf10 (11716521_a_at) / RFU C5orf56 (11738089_at) / Fold change /veh C5orf56 (11738089_at) / RFU CYB561 (11721691_x_at) / Fold change /veh CYB561 (11721691_x_at) / RFU ANKRD19P (11752326_a_at) / Fold change /veh ANKRD19P (11752326_a_at) / RFU OR2T12 /// OR2T33 /// OR2T8 (11738714_s_at) / Fold change /veh OR2T12 /// OR2T33 /// OR2T8 (11738714_s_at) / RFU VCAN (11748164_a_at) / Fold change /veh VCAN (11748164_a_at) / RFU JSRP1 (11732532_at) / Fold change /veh JSRP1 (11732532_at) / RFU KRTAP10-11 (11738290_x_at) / Fold change /veh KRTAP10-11 (11738290_x_at) / RFU MYO3A (11730013_a_at) / Fold change /veh MYO3A (11730013_a_at) / RFU EBF3 (11725865_a_at) / Fold change /veh EBF3 (11725865_a_at) / RFU CAMK2N1 (11719241_x_at) / Fold change /veh CAMK2N1 (11719241_x_at) / RFU C5orf56 (11738088_a_at) / Fold change /veh C5orf56 (11738088_a_at) / RFU OLFML3 (11715873_a_at) / Fold change /veh OLFML3 (11715873_a_at) / RFU LOC100653217 /// NTM (11731650_a_at) / Fold change /veh LOC100653217 /// NTM (11731650_a_at) / RFU MAPK11 (11762145_a_at) / Fold change /veh MAPK11 (11762145_a_at) / RFU FIZ1 (11724087_x_at) / Fold change /veh FIZ1 (11724087_x_at) / RFU OASL (11726364_x_at) / Fold change /veh OASL (11726364_x_at) / RFU SOX15 (11748057_x_at) / Fold change /veh SOX15 (11748057_x_at) / RFU CD79A (11719716_a_at) / Fold change /veh CD79A (11719716_a_at) / RFU HIST1H1D (11736915_at) / Fold change /veh HIST1H1D (11736915_at) / RFU CASKIN2 (11723855_a_at) / Fold change /veh CASKIN2 (11723855_a_at) / RFU LOC730098 (11760151_x_at) / Fold change /veh LOC730098 (11760151_x_at) / RFU OR4N2 (11742367_at) / Fold change /veh OR4N2 (11742367_at) / RFU PRRT2 (11749266_a_at) / Fold change /veh PRRT2 (11749266_a_at) / RFU SNX32 (11753110_a_at) / Fold change /veh SNX32 (11753110_a_at) / RFU CDHR5 (11726645_a_at) / Fold change /veh CDHR5 (11726645_a_at) / RFU RCAN1 (11760418_a_at) / Fold change /veh RCAN1 (11760418_a_at) / RFU FAM167A (11723789_a_at) / Fold change /veh FAM167A (11723789_a_at) / RFU FAM26E (11764081_at) / Fold change /veh FAM26E (11764081_at) / RFU ISYNA1 (11749810_s_at) / Fold change /veh ISYNA1 (11749810_s_at) / RFU ACY1 (11761880_at) / Fold change /veh ACY1 (11761880_at) / RFU 11764098_at / Fold change /veh 11764098_at / RFU SAMD14 (11745864_x_at) / Fold change /veh SAMD14 (11745864_x_at) / RFU NPB (11741838_a_at) / Fold change /veh NPB (11741838_a_at) / RFU TMPRSS6 (11731388_a_at) / Fold change /veh TMPRSS6 (11731388_a_at) / RFU KRTAP10-2 (11738614_at) / Fold change /veh KRTAP10-2 (11738614_at) / RFU ARHGAP8 /// PRR5-ARHGAP8 (11727945_x_at) / Fold change /veh ARHGAP8 /// PRR5-ARHGAP8 (11727945_x_at) / RFU KRTAP5-7 /// NADSYN1 (11734609_at) / Fold change /veh KRTAP5-7 /// NADSYN1 (11734609_at) / RFU RASL12 (11751679_a_at) / Fold change /veh RASL12 (11751679_a_at) / RFU CDKN2B (11736163_a_at) / Fold change /veh CDKN2B (11736163_a_at) / RFU PRF1 (11729649_at) / Fold change /veh PRF1 (11729649_at) / RFU, ZNF638 /// ZNF638-IT1 / Fold change vs veh, ZNF638 /// ZNF638-IT1 / RFU, PANK3 / Fold change vs veh, PANK3 / RFU, SH3YL1 / Fold change vs veh, SH3YL1 / RFU, ZEB2 / Fold change vs veh, ZEB2 / RFU, NRIP1 / Fold change vs veh, NRIP1 / RFU, PTTG1IP / Fold change vs veh, PTTG1IP / RFU, CAPN2 / Fold change vs veh, CAPN2 / RFU, MED14 / Fold change vs veh, MED14 / RFU, SNORA58 / Fold change vs veh, SNORA58 / RFU, C1orf63 / Fold change vs veh, C1orf63 / RFU, LRRFIP1 / Fold change vs veh, LRRFIP1 / RFU, NDUFAF7 / Fold change vs veh, NDUFAF7 / RFU, SLC12A2 / Fold change vs veh, SLC12A2 / RFU, IBTK / Fold change vs veh, IBTK / RFU, ESF1 / Fold change vs veh, ESF1 / Fold change vs veh, TMEM50B / RFU, TAOK1 / Fold change vs veh, TAOK1 / RFU, ACBD3 / Fold change vs veh, ACBD3 / RFU, TMA16 / Fold change vs veh, TMA16 / RFU, RWDD3 / Fold change vs veh, RWDD3 / RFU, BCAT1 / Fold change vs veh, BCAT1 / RFU, EDEM3 / Fold change vs veh, EDEM3 / RFU, TMEM33 / Fold change vs veh, TMEM33 / RFU, WDR75 / Fold change vs veh, WDR75 / RFU, AHCTF1 / Fold change vs veh, AHCTF1 / RFU, TFRC / Fold change vs veh, TFRC / RFU, ZDHHC17 / Fold change vs veh, ZDHHC17 / RFU, NOM1 / Fold change vs veh, NOM1 / RFU, ARL8B / Fold change vs veh, ARL8B / RFU, ZBTB11 / Fold change vs veh, ZBTB11 / RFU, TAMM41 / Fold change vs veh, TAMM41 / RFU, KIAA1704 /// LOC100996395 / Fold change vs veh, KIAA1704 /// LOC100996395 / RFU, ING1 / Fold change vs veh, ING1 / RFU, TRMT61B / Fold change vs veh, TRMT61B / RFU, FUBP3 / Fold change vs veh, FUBP3 / RFU, TP53 / Fold change vs veh, TP53 / RFU, TNKS2 / Fold change vs veh, TNKS2 / RFU, ZFP14 / Fold change vs veh, ZFP14 / RFU, ACTR2 / Fold change vs veh, ACTR2 / RFU, PPP3R1 / Fold change vs veh, PPP3R1 / RFU, PIK3R1 / Fold change vs veh, PIK3R1 / RFU, HNRNPA1 / Fold change vs veh, HNRNPA1 / RFU, RNF170 / Fold change vs veh, RNF170 / RFU, ZNF28 / Fold change vs veh, ZNF28 / RFU, RNGTT / Fold change vs veh, RNGTT / RFU, OGT / Fold change vs veh, OGT / RFU, BRD1 / Fold change vs veh, BRD1 / RFU, MARS / Fold change vs veh, MARS / RFU, ZNF655 / Fold change vs veh, ZNF655 / RFU, FAHD1 / Fold change vs veh, FAHD1 / RFU, BDP1 / Fold change vs veh, BDP1 / RFU, LRRCC1 / Fold change vs veh, LRRCC1 / RFU, ARID1A / Fold change vs veh, ARID1A / RFU, ZNF146 / Fold change vs veh, ZNF146 / RFU, ZNF330 / Fold change vs veh, ZNF330 / RFU, GPN3 / Fold change vs veh, GPN3 / RFU, C9orf123 / Fold change vs veh, C9orf123 / RFU, N4BP2L2 / Fold change vs veh, N4BP2L2 / RFU, ARFIP1 / Fold change vs veh, ARFIP1 / RFU, FAM179B / Fold change vs veh, FAM179B / RFU, BCL10 / Fold change vs veh, BCL10 / RFU, UHRF1BP1L / Fold change vs veh, UHRF1BP1L / RFU, BET1 / Fold change vs veh, BET1 / RFU, CNOT2 / Fold change vs veh, CNOT2 / RFU, ZNF268 / Fold change vs veh, ZNF268 / Fold change vs veh, ZNF507 / RFU, DGCR2 / Fold change vs veh, DGCR2 / RFU, WDSUB1 / Fold change vs veh, WDSUB1 / Fold change vs veh, HSP90B1 /// MIR3652 / RFU, ADSS / Fold change vs veh, ADSS / RFU, GK / Fold change vs veh, GK / RFU, ZNF148 / Fold change vs veh, ZNF148 / RFU, TAF9 / Fold change vs veh, TAF9 / RFU, SLC1A5 / Fold change vs veh, SLC1A5 / RFU, SLMO2 / Fold change vs veh, SLMO2 / RFU, ABCC4 / Fold change vs veh, ABCC4 / RFU, LOC101060439 /// RAP1B / Fold change vs veh, LOC101060439 /// RAP1B / RFU, RFX7 / Fold change vs veh, RFX7 / RFU, GTPBP10 / Fold change vs veh, GTPBP10 / RFU, CNEP1R1 / Fold change vs veh, CNEP1R1 / RFU, BIVM-ERCC5 /// ERCC5 / Fold change vs veh, BIVM-ERCC5 /// ERCC5 / RFU, ILF3 / Fold change vs veh, ILF3 / RFU 11762660_at / Fold change /veh 11762660_at / RFU VCAN (11757783_s_at) / Fold change /veh VCAN (11757783_s_at) / RFU DDX43 (11728927_at) / Fold change /veh DDX43 (11728927_at) / RFU KRT8 (11758188_x_at) / Fold change /veh KRT8 (11758188_x_at) / RFU NKD1 (11759106_at) / Fold change /veh NKD1 (11759106_at) / RFU SRD5A1 (11742802_a_at) / Fold change /veh SRD5A1 (11742802_a_at) / RFU TPSAB1 /// TPSB2 (11721975_s_at) / Fold change /veh TPSAB1 /// TPSB2 (11721975_s_at) / RFU GSTM3 (11746129_a_at) / Fold change /veh GSTM3 (11746129_a_at) / RFU IL23R (11737362_x_at) / Fold change /veh IL23R (11737362_x_at) / RFU TMEM51 (11727254_a_at) / Fold change /veh TMEM51 (11727254_a_at) / RFU PIWIL2 (11732686_x_at) / Fold change /veh PIWIL2 (11732686_x_at) / RFU ORM1 (11744905_x_at) / Fold change /veh ORM1 (11744905_x_at) / RFU CCDC152 (11743942_at) / Fold change /veh CCDC152 (11743942_at) / RFU ECM1 (11717891_a_at) / Fold change /veh ECM1 (11717891_a_at) / RFU IL23R (11748794_a_at) / Fold change /veh IL23R (11748794_a_at) / RFU TNFAIP8L3 (11732012_x_at) / Fold change /veh TNFAIP8L3 (11732012_x_at) / RFU MBOAT4 (11741988_at) / Fold change /veh MBOAT4 (11741988_at) / RFU 11764193_at / Fold change /veh 11764193_at / RFU TMEM53 (11763286_at) / Fold change /veh TMEM53 (11763286_at) / RFU MAGEB2 (11727129_at) / Fold change /veh MAGEB2 (11727129_at) / RFU TMEM200A (11744735_a_at) / Fold change /veh TMEM200A (11744735_a_at) / RFU CCDC152 (11751479_a_at) / Fold change /veh CCDC152 (11751479_a_at) / RFU FAM211A (11726209_a_at) / Fold change /veh FAM211A (11726209_a_at) / RFU RGS16 (11746705_a_at) / Fold change /veh RGS16 (11746705_a_at) / RFU VCAN (11755009_s_at) / Fold change /veh VCAN (11755009_s_at) / RFU RHOB (11743442_s_at) / Fold change /veh RHOB (11743442_s_at) / RFU RGS16 (11720943_a_at) / Fold change /veh RGS16 (11720943_a_at) / RFU RGS16 (11720944_at) / Fold change /veh RGS16 (11720944_at) / RFU, VPS4B / Fold change vs veh, VPS4B / RFU, CREB1 / Fold change vs veh, CREB1 / RFU, DNAJC13 / Fold change vs veh, DNAJC13 / RFU, GNAQ / Fold change vs veh, GNAQ / RFU, CDK5R1 / Fold change vs veh, CDK5R1 / RFU, ZRANB3 / Fold change vs veh, ZRANB3 / RFU, CUL4A / Fold change vs veh, CUL4A / RFU, CCNY / Fold change vs veh, CCNY / RFU, UFL1 / Fold change vs veh, UFL1 / RFU, COG3 / Fold change vs veh, COG3 / RFU, DIAPH2 / Fold change vs veh, DIAPH2 / RFU, SKA2 / Fold change vs veh, SKA2 / RFU, AFF3 / Fold change vs veh, AFF3 / RFU, LMF1 / Fold change vs veh, LMF1 / RFU, IPO11 / Fold change vs veh, IPO11 / RFU, DFFB / Fold change vs veh, DFFB / RFU, FOXP1 / Fold change vs veh, FOXP1 / RFU, CARD8 / Fold change vs veh, CARD8 / RFU, STRN3 / Fold change vs veh, STRN3 / RFU, ADK / Fold change vs veh, ADK / RFU, RASSF2 / Fold change vs veh, RASSF2 / RFU, WIPF1 / Fold change vs veh, WIPF1 / RFU, LARP1B / Fold change vs veh, LARP1B / RFU, RASA1 / Fold change vs veh, RASA1 / RFU, RB1 / Fold change vs veh, RB1 / RFU, PPFIA1 / Fold change vs veh, PPFIA1 / RFU, MAT2A / Fold change vs veh, MAT2A / RFU, CCT5 / Fold change vs veh, CCT5 / RFU, WDR92 / Fold change vs veh, WDR92 / RFU, CUX1 / Fold change vs veh, CUX1 / RFU, TTC7A / Fold change vs veh, TTC7A / RFU, TMEM135 / Fold change vs veh, TMEM135 / RFU, DEPTOR / Fold change vs veh, DEPTOR / RFU, CPM / Fold change vs veh, CPM / RFU, DNAJB6 / Fold change vs veh, DNAJB6 / RFU, CACNA2D3 / Fold change vs veh, CACNA2D3 / RFU, DTX4 / Fold change vs veh, DTX4 / RFU, TFCP2 / Fold change vs veh, TFCP2 / RFU, GMCL1 /// GMCL1P1 / Fold change vs veh, GMCL1 /// GMCL1P1 / RFU, AEBP2 / Fold change vs veh, AEBP2 / RFU, SNHG1 /// SNORD22 /// SNORD25 /// SNORD26 /// SNORD27 /// SNORD28 /// SNORD29 /// SNORD31 / Fold change vs veh, SNHG1 /// SNORD22 /// SNORD25 /// SNORD26 /// SNORD27 /// SNORD28 /// SNORD29 /// SNORD31 / Fold change (Aza/veh), C12orf56 (ProbeSet 11735607_a_at) / Fold change (ACY-1035/veh), C12orf56 (ProbeSet 11735607_a_at) / Fold change (Aza/veh), FGFR1OP (ProbeSet 11751329_s_at) / Fold change (ACY-1035/veh), FGFR1OP (ProbeSet 11751329_s_at) / Fold change (Aza/veh), VPS36 (ProbeSet 11739960_a_at) / Fold change (ACY-1035/veh), VPS36 (ProbeSet 11739960_a_at) / RFU SYPL1 (11715823_x_at) / Fold change /veh SYPL1 (11715823_x_at) / RFU IGFBP7 (11715501_s_at) / Fold change /veh IGFBP7 (11715501_s_at) / RFU REEP3 (11722064_at) / Fold change /veh REEP3 (11722064_at) / RFU IGLL1 (11728026_x_at) / Fold change /veh IGLL1 (11728026_x_at): dose or concentration left out as unconfirmed
Conditions: ProbeSet 11725901_x_at; LIST B

Nc1ccc(-c2cccs2)cc1NC(=O)c1ccc2c(c1)cc(C1CC1)n2CCN1CCOCC1 [ACY-1035]
RFU, RWDD3: 19.72 RFU
